Assay results: patent publication US20250339531A1, “DUX4 POLYPEPTIDES AND NUCLEIC ACIDS FOR TREATING INFLAMMATORY AND AUTOIMMUNE CONDITIONS” (Fred Hutchinson Cancer Center, priority 2021, published 2025)
“Also recorded” adds a separate entry of the source.

Key:
Assay type in all cases: cell-based, human
[1] = system: RPL10A, RPL4, RPS6, RPS15A, MYOD1, DES; assay: Immunoblot of ribosomal proteins and myogenic factors; details: DUX4 pulse+IFNG relative to IFNG
Protocol: (§1) Protein samples were harvested in RIPA buffer [150 mM NaCl, 1% NP-40, 0.5% Na-deocycholate, 1% SDS, 25 mM Tris-HCl pH7.4] supplemented with protease and phosphatase inhibitor tablets (Pierce), followed by sonication in Diagenode Bioruptor. Lysate was cleared by centrifugation at 16000×g and quantified using a Pierce BCA assay (Thermo Fisher Scientific). Samples were run on NuPAGE precast polyacrylamide gels (Invitrogen) and transferred to PVDF membrane. Membranes were blocked in PBS containing 0.1% Tween-20 and 5% non-fat dry milk before overnight incubation at 4° C. with primary antibodies (see resource table for a list of antibodies used in this study). Membranes were incubated with horseradish peroxidase-conjugated secondary antibodies for 1 hour at room temperature and SuperSignal chemiluminescent substrate (Thermo Scientific) was used for detection on film with a Mini-medical 90 processor. Membranes were stripped with Restore Western Blot Stripping Buffer (Pierce).

[2] = system: de novo protein synthesis; assay: HPG Click-iT labeling of nascent proteins; details: MB135-iDUX4ca myoblasts, 20-96 hours after a pulse
Protocol: Cells were incubated for 30 minutes in DMEM or RPMI media depleted for methionine and cysteine (Gibco), followed by a 1-hour incubation in methionine-depleted media supplemented with 200 μM HPG (Sigma). Cells were fixed with 4% paraformaldehyde (Electron Microscopy Sciences) diluted in PBS for 10 minutes at room temperature and stained with Click-iT HPG Alexa Fluor 488 Protein Synthesis Assay Kit (Invitrogen) according to manufacturer's protocol.

[3] = system: H3.X/Y; assay: Immunoblot of DUX4 target H3.X/Y proteins; details: MB135 cells, continuous or pulsed protocol
Protocol: as §1

[4] = system: translational efficiency (TE); assay: Ribosome footprinting (Ribo-seq) paired with RNA-seq; details: DUX4 pulse+IFNG versus IFNG, 68 hours
Protocol: Ribo-seq was performed as described previously (Calviello et al., 2016) using two 70% confluent 15 cm plates of MB135iDUX4 myoblasts per treatment condition (n=3). MB135iDUX4 myoblasts were pulsed with or without doxycycline for 4 hours, incubated for 48 hours, supplemented with or without 50 ng/mL IFNG for 16 hours, and harvested at a terminal time point of 68 hours. To harvest, media was aspirated and each 15 cm plate of adherent cells was rinsed with 25 mL ice-cold PBS supplemented with 100 μg/mL cycloheximide (Sigma). After thorough removal of the PBS, plates were immersed in liquid nitrogen and placed on dry ice. Cells were lysed in mammalian polysome lysis buffer (20 mM Tris-HCl, pH 7.4, 150 mM NaCl, 5 mM MgCl2, 1 mM DTT, 100 μg/mL cycloheximide added fresh) supplemented with 1% Triton X-100 and 25 U/ml Turbo DNase (Ambion), transferred to wet ice, harvested by scraping and further lysed by trituration ten times through a 26-gauge needle. Lysates were cleared by centrifugation at 20,000×g for 10 min at 4° C., flash frozen in liquid nitrogen, and stored at −80° C. To isolate ribosome-protected RNA fragments, lysates were thawed, digested with 2.5 U/μL RNase I (Ambion) for 45 minutes at room temperature with gentle mixing, and treated with 0.65 U/μL SUPERaseIn RNase Inhibitor (Thermo Fisher Scientific) to stop nuclease activity. Ribosome complexes were isolated using MicroSpin S-400 HR Columns (GE Healthcare) and RNA extracted using the Direct-zol RNA Miniprep Kit (Zymo Research). The rRNA Removal Mix—Gold component of Illumina's TruSeq Stranded Total RNA Library Prep Gold kit was used to deplete rRNAs. Samples were precipitated using GlycoBlue Coprecipitant (Ambion) as carrier, 0.1 volume 3M sodium acetate and 3 volumes 100% Ethanol, incubated at −80° C. overnight, centrifuged for 45 minutes at 20,000×g at 4° C., and RNA pellet dissolved in nuclease-free ultrapure water. Ribosome-protected fragments were isolated by running samples on a 15% TBE-Urea gel with 10 bp DNA Ladder (Promega) and Marker-27nt and Marker-30nt (data not shown). […]

[5] = system: MHC class I proteins (HLA-A/B/C); assay: Immunoblot of IFNG-induced MHC class I protein, continuous or pulsed protocol, MB135 myoblasts; details: MB135 cells; for suppression of IFNG-induced MHC class I protein, pulsed protocol: 4 h doxycycline pulse, IFNG added later for 16 h; for suppression of IFNG-induced MHC class I protein, continuous protocol: doxycycline 20 h, IFNG last 16 h
Protocol: In the “continuous” protocol (similar to the experiments shown in the prior FIGS. 1, 2, 4, 5, and 6), doxycycline is added to induce DUX4 expression at time 0 and four hours later IFNG is added for an additional 16 hours, resulting in 20 hours of continuous DUX4 induction with the last 16 hrs exposed to IFNG.
In the “pulsed” protocol, doxycycline is added at time 0 to induce DUX4 expression, but after four hours the media is changed to remove the doxycycline, resulting in a pulse of DUX4 mRNA and protein sufficient to induce DUX4 target gene expression (see Resnick et al., Cell Rep. 2019 Nov. 12; 29(7):1812-1820.e5). IFNG is added at 28 hours for a period of 16 hours prior to harvesting the cells. […] This difference is not likely to be due to different amounts of the DUX4 and mutant DUX4 proteins because at the time of harvest both DUX4 and the F67A mutant DUX4 protein levels have declined to similarly low amounts relative to the continuous protocol, but could be due to the activation of DUX4 target genes by the full-length DUX4 since the H3.X/Y proteins show persistent expression in the pulsed protocol.
as §1

Question: Which “protein levels of ribosomal proteins and myogenic factors” value [1] does the source give for “DUX4: human DUX4 protein SEQ ID NO:3 expressed from doxycycline inducible codon altered transgene SEQ ID NO:2” here?
Answer: RPL10A, RPL4, RPS6, and RPS15A are suppressed by DUX4; also recorded: both were suppressed at the protein level

Question: And the “nascent protein synthesis by HPG labeling” value [2]?
Answer: dramatic reduction in HPG-labeled peptides; also recorded: peak suppression occurred forty-four hours after a pulse of DUX4; also recorded: HPG signal largely recovered by ninety-two hours

Question: And the “induction of DUX4 target H3.X/Y proteins” value [3]?
Answer: activates a DUX4-regulated gene H3.X/Y in both protocols

Question: And the “induction of DUX4 target H3.X/Y proteins” value ([3]; listed as full-length DUX4)?
Answer: are induced by the full-length DUX4

Question: And the “transcripts with significantly reduced TE at the 5′UTR” value [4]?
Answer: 26.7%

Question: What about the “transcripts with significantly reduced TE at the TSS” value [4] of the same substance?
Answer: 13.9%

Question: And the “transcripts with significantly reduced TE within the first exon” value [4]?
Answer: 4.3%

Question: What about the “suppression of IFNG-induced MHC class I protein, pulsed protocol” value (“suppression … pulsed protocol” for short) [5] of the same substance?
Answer: more profound suppression of the MHC class I proteins; also recorded: even more effectively in the pulsed protocol; also recorded: elicited the same degree of suppression when assayed forty-four hours later; also recorded: suppressed HLA-A/B/C proteins even a day later

Question: What about the “suppression … pulsed protocol” value ([5]; listed as full-length DUX4) of the same substance?
Answer: suppresses MHC class I expression as well, or slightly better, in the pulsed protocol than in the continuous protocol

Question: And the “suppression … pulsed protocol” value ([5]; listed as wildtype DUX4)?
Answer: suppressed MHC-I and immunoproteasome subunits

Question: What about the “suppression of IFNG-induced MHC class I protein, continuous protocol” value (“suppression … continuous protocol” below) [5] of the same substance?
Answer: modest suppression of MHC class I protein; also recorded: suppresses MHC class I proteins; also recorded: IFNG-induction of MHC-I and the immunoproteasome was suppressed; also recorded: MHC class I induction, but not HLA-E is blocked

Question: And the “suppression … continuous protocol” value ([5]; listed as full-length DUX4)?
Answer: suppress the IFNG induction of MHC class I expression

Question: What about the “suppression … continuous protocol” value ([5]; listed as wildtype DUX4) of the same substance?
Answer: suppressed IFNG-induced MHC-I and the immunoproteasome expression
